Patent US9828357B2, “Cyclic compounds” (Takeda Pharmaceutical Company Limited, priority 2015, dated 2017)

Biological target: T1, TLR4 (Mus musculus, UniProt Q9QUK6)
T1 construct: endogenous in cells; host or cells: RAW264.7 (murine macrophage cell line)
T1 sequence (Q9QUK6 26-835): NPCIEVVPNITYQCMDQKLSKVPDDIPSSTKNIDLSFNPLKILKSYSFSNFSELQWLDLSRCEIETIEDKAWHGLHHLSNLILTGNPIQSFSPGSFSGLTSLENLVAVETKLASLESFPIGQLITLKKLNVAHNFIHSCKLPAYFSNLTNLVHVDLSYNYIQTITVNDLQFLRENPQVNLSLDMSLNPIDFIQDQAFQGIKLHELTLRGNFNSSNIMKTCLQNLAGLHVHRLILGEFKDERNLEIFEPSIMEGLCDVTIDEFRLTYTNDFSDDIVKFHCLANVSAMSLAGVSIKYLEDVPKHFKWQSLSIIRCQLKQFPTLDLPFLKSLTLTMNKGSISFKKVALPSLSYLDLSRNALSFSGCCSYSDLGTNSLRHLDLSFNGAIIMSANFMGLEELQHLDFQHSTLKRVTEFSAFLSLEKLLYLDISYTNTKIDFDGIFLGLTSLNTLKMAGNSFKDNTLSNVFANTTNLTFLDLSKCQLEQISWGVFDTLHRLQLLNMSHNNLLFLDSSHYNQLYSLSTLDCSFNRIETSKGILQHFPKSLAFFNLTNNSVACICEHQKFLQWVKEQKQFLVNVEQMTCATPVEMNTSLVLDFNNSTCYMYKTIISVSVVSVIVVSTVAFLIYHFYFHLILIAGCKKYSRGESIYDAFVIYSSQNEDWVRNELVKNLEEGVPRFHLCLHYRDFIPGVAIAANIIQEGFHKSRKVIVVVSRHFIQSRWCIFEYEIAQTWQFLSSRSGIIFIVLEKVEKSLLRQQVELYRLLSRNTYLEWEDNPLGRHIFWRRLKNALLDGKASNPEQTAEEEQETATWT
T1 sequence (Q9JHF9 19-160 partner): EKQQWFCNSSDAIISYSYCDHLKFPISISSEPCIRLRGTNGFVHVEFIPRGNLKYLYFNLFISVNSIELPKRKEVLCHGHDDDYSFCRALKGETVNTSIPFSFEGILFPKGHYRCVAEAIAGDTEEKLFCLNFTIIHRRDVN
Test: Inhibitory effect with respect to NO production (LPS/interferon γ-stimulated RAW264.7)
Format: cell-based, murine
Conditions: RAW264.7 cells, LPS 1.25 ng/mL and mouse interferon γ 0.2 ng/mL, nitrite ion in culture supernatant
Experimental: The inhibitory effect on TLR4 was determined using the inhibition rate due to the test compound with respect to NO production as a result of addition of lipopolysaccharide (LPS) using murine macrophage cell line RAW264.7. The cells were adjusted to 2×10^6 cells/mL using RPM1-1640 culture medium (phenol red free) supplemented with 10% inactivated bovine fetal serum, and were plated on 384 well plate so as to contain 6×10^4 cells/30 μL per well. Thereafter the cells were cultured at 37° C. overnight under 5% CO2/95% air. The test compound dissolved in DMSO was diluted 200 times using RPM1-1640 culture medium and adjusted so as to form a compound concentration of 500 nM. The prepared test compound 10 μL (final concentration 100 nM) was added to the cells, and LPS (Sigma) and mouse interferon γ (Wako Pure Chemicals) were added in amounts of 10 μL so as to form final concentrations of 1.25 ng/mL and 0.2 ng/mL respectively. The cells were further cultured overnight, and then the nitrite ion (stable NO metabolite) concentration in the culture supernatant was measured as an index of NO production. The nitrite ion concentration was assayed by adding 10 μL of 20 μg/mL 2,3-diamino naphthalene (DAN) dissolved in 0.2N HCl to 20 μL culture supernatant, incubating at room temperature for ten minutes, and then adding 10 μL of 0.5N NaOH, and measuring the fluorescent value at 460 nm (excitation wavelength 355 nm) using an EnVision plate reader (Perkin Elmer). The NO production inhibition rate (%) was calculated using the value without the addition of stimulating agent as control of 100% inhibition, and the value without the addition of the compound as control of 0% inhibition.

NO production inhibitory effect at 100 nM (% inhibition): 103 % inhibition
SMILES: CCOC(=O)C1=CC2(CC[C@H]1S(=O)(=O)[C@H]1CCc3cccc(Cl)c31)O[C@H](CO)[C@@H](CO)O2 [Compound 6, Ethyl (2R,3R,8R)-8-(((1S)-7-chloro-2,3-dihydro-1H-inden-1-yl)sulfonyl)-2,3-bis(hydroxymethyl)-1,4-dioxaspiro[4.5]dec-6-ene-7-carboxylate]
